The record followed here is US6448232B1, “Method of using dihydrochalcone derivatives to block glucose transfer” (priority 1999, dated 2002).

Common to all, as to assay type: in vivo
A short description of test [1]: Urine glucose after oral ingestion of phlorizin, no food versus in milk. Conditions: 1 gm oral; for urine glucose: 85 kg male.
Test [2] can be described thus: Body weight during oral phlorizin three times a day on an empty stomach. Conditions: for Weight after 3 days of phlorizin: 1.5 grams oral three times a day, 90 minutes before eating. On the procedure: 1.5 grams phlorizin as a dry powder in a gelatin capsule was ingested orally three times a day, 90 minutes before eating on an empty stomach. Weight measured at the same time each day with a digital electronic scale. Normal dietary conditions were maintained during the time that the phlorizin was ingested.

Test [3] in a line: Whole blood glucose after ingesting 100 g of carbohydrates, glucose oxidase reaction. On the procedure:
(§1) 1.5 g of phlorizin as a dry powder in a gelatin capsule was ingested one hour prior to ingesting 100 g of carbohydrates and compared to similar ingestion of carbohydrates without the prior consumption of the phlorizin. Glucose and insulin levels were measured just prior to and 30 and 60 minutes following carbohydrate ingestion and glucose levels were also measured 90 and 120 minutes after carbohydrate ingestion. Glucose levels were established by glucose oxidase reaction using whole blood and measuring the color generated with a hand-held spectrophotometer. Serum insulin was measured using commercially available immunoassay devices and methods.

A short description of test [4]: Serum insulin after ingesting 100 g of carbohydrates, immunoassay. Conditions: 1.5 g oral one hour prior to 100 g of carbohydrates. On the procedure:
as §1

Regarding `O=C(CCc1ccc(O)cc1)c1c(O)cc(O)cc1O[C@@H]1O[C@H](CO)[C@@H](O)[C@H](O)[C@H]1O` [phlorizin], the urine glucose entry was “no food: <50 mg/dl in milk: <50 mg/dl” in test [1] (in milk, 0 minutes after ingestion); less than 50 mg/dL in test [1] (in milk, 90 minutes after ingestion); “no food: 50 mg/dl in milk: <50 mg/dl” in test [1] (in milk, 150 minutes after ingestion); “no food: <50 mg/dl in milk: <50 mg/dl” in test [1] (in milk, 210 minutes after ingestion); “no food: <50 mg/dl in milk: <50 mg/dl” in test [1] (no food (empty stomach), 0 minutes after ingestion); 500 mg/dL in test [1] (no food (empty stomach), 90 minutes after ingestion). Besides, the urine glucose result was “no food: 50 mg/dl in milk: <50 mg/dl” in test [1] (no food (empty stomach), 150 minutes after ingestion) and “no food: <50 mg/dl in milk: <50 mg/dl” in test [1] (no food (empty stomach), 210 minutes after ingestion). Further, the “effectiveness as a glucose blocker (urine glucose)” value in test [1] (no food versus in milk, conclusion in words) was “effective as a glucose blocker only if it is ingested without food on an empty stomach”. In test [2] (1.5 grams oral three times a day for 3 days, conclusion in words), the “effect on body weight” value is on record as “effective in reducing body weight”. In addition, the “Weight after 3 days of phlorizin” value in test [2] (Experiment 1, pre-phlorizin weight 192.2 lbs.) worked out at 189.4 lbs; in test [2] (Experiment 2, pre-phlorizin weight 193.2 lbs.), 185.4 lbs; in test [2] (Experiment 3, pre-phlorizin weight 191.5 lbs.), 186.8 lbs; in test [2] (Experiment 4, pre-phlorizin weight 194.4 lbs.), 189.0 lbs. The GLUCOSE in test [3] (1.5 g oral one hour prior to 100 g of carbohydrates, 0 minutes (just prior to carbohydrate ingestion)) worked out at 90 mg/dL; in test [3] (1.5 g oral one hour prior to 100 g of carbohydrates, 30 minutes after carbohydrate ingestion), 146 mg/dL; in test [3] (1.5 g oral one hour prior to 100 g of carbohydrates, 60 minutes after carbohydrate ingestion), 144 mg/dL; in test [3] (1.5 g oral one hour prior to 100 g of carbohydrates, 90 minutes after carbohydrate ingestion) it was 108 mg/dL; in test [3] (1.5 g oral one hour prior to 100 g of carbohydrates, 120 minutes after carbohydrate ingestion) it was 117 mg/dL. For the same compound, in test [3] (1.5 g oral one hour prior to 100 g of carbohydrates, conclusion in words), the “effect on postprandial rise in glucose and insulin levels” value is “able to decrease the postpandrial rise in glucose and insulin levels”. Further, in test [3] (glucose levels at 90 and 120 minutes with and without phlorizin, conclusion in words), the “prevention of reactive hypoglycemia” value is on record as “effective in preventing reactive hypoglycemia”. For the same compound, the INSULIN in test [4] (0 minutes (just prior to carbohydrate ingestion)) turned out to be 5 microIU/ml; in test [4] (30 minutes after carbohydrate ingestion) it was 34 microIU/ml; in test [4] (60 minutes after carbohydrate ingestion), 28 microIU/ml.
